According to PubChem BioAssay (NCI):
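A five-concentration, 48-hour dose response in 96-well plates underlies each endpoint, interpolated linearly between surrounding concentrations. At the TGI there is no net growth.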

Experiments:
Assay in all cases: growth of human tumour cells (NCI), 48 h
[1] = system: IGROV1 ovarian
[2] = system: HS 578T breast
[3] = system: SK-MEL-28 melanoma
[4] = system: COLO 205 colon
[5] = system: MCF7 breast
[6] = system: A498 renal
[7] = system: NCI-H226 lung
[8] = system: TK-10 renal
[9] = system: MALME-3M melanoma
[10] = system: NCI-H460 lung

Q: With `COc1cccc(OC/C(N=Cc2ccncc2)=N/NC(=O)c2ccncc2)c1` as the compound, how does the TGI [1] read?
A: > 100 µM

Q: What about the TGI [2] of the same compound?
A: > 100 µM

Q: And the TGI [3]?
A: > 100 µM

Q: What about the TGI [4] of the same compound?
A: > 100 µM

Q: And the TGI [5]?
A: > 100 µM

Q: And the TGI [6]?
A: > 100 µM

Q: And the TGI [7]?
A: > 100 µM

Q: And the TGI [8]?
A: > 100 µM

Q: What about the TGI [9] of the same compound?
A: > 100 µM

Q: And the TGI [10]?
A: > 100 µM

Q: Which results are given for `CCCCN(CCCC)C1=Nc2ccccc2-n2c(nnc2C(=O)OCC)C1`?
A: TGI [1]: > 100 µM; TGI [2]: > 100 µM; TGI [3]: > 100 µM; TGI [4]: 36.2 µM; TGI [5]: > 100 µM; TGI [7]: > 100 µM; TGI [8]: > 100 µM; TGI [9]: 82.1 µM; TGI [10]: 89.4 µM

Q: `COc1c(-c2ccc(F)cc2)oc2cc(O)cc(O)c2c1=O` was tested. Which TGI [1] did it give?
A: > 100 µM

Q: And the TGI [2]?
A: > 100 µM

Q: What about the TGI [3] of the same compound?
A: > 100 µM

Q: What about the TGI [4] of the same compound?
A: 36.7 µM

Q: And the TGI [5]?
A: > 100 µM

Q: And the TGI [6]?
A: > 100 µM

Q: And the TGI [9]?
A: 61.1 µM

Q: What about the TGI [10] of the same compound?
A: 59.9 µM

Q: What does the source list for `COC(=O)c1c(C)cccc1C1CN=NC12Cc1cccc(C)c1C2=O` (stereo not given)?
A: TGI [1]: > 100 µM; TGI [2]: > 100 µM; TGI [3]: > 100 µM; TGI [4]: > 100 µM; TGI [5]: > 100 µM; TGI [6]: > 100 µM; TGI [7]: 98.4 µM; TGI [8]: > 100 µM; TGI [9]: 87.2 µM; TGI [10]: 45.1 µM

Q: `COC(C/C=C\C=C\CC/C=C/CC(C)/C=C/C(=C\C(=O)O)CC(=O)O)/C(C)=C\C=C(/C)C(=O)O` (stereo not given) was tested. Which TGI [1] did it give?
A: > 100 µM

Q: What about the TGI [2] of the same compound?
A: > 100 µM

Q: What about the TGI [3] of the same compound?
A: > 100 µM

Q: What about the TGI [4] of the same compound?
A: > 100 µM

Q: What about the TGI [6] of the same compound?
A: > 100 µM

Q: What about the TGI [8] of the same compound?
A: > 100 µM

Q: What about the TGI [9] of the same compound?
A: > 100 µM

Q: What about the TGI [10] of the same compound?
A: > 100 µM

Q: With `CCC(=O)Nc1ccc(N2C(=O)/C(=C/c3ccc(O)c(OC)c3)N=C2c2ccccc2)cc1` as the compound, how does the TGI [1] read?
A: > 100 µM

Q: And the TGI [2]?
A: > 100 µM

Q: What about the TGI [3] of the same compound?
A: > 100 µM

Q: And the TGI [5]?
A: > 100 µM

Q: What about the TGI [6] of the same compound?
A: 36.6 µM

Q: And the TGI [7]?
A: 50.5 µM

Q: What about the TGI [9] of the same compound?
A: > 100 µM

Q: And the TGI [10]?
A: > 100 µM

Q: With `C/C(=C\COP(=O)(O)OP(=O)(O)O)CC/C=C(\C)CNc1ccccc1` as the compound, how does the TGI [1] read?
A: > 50 µM

Q: What about the TGI [2] of the same compound?
A: > 50 µM

Q: And the TGI [3]?
A: > 50 µM

Q: And the TGI [4]?
A: > 50 µM

Q: And the TGI [5]?
A: > 50 µM

Q: What about the TGI [7] of the same compound?
A: > 50 µM

Q: What about the TGI [8] of the same compound?
A: > 50 µM

Q: And the TGI [10]?
A: > 50 µM

Q: For `C=C1CN=C(Nc2ccc(F)cc2F)S1`, which TGI [1] is on record?
A: > 100 µM

Q: What about the TGI [2] of the same compound?
A: > 100 µM

Q: What about the TGI [3] of the same compound?
A: > 100 µM

Q: And the TGI [4]?
A: > 100 µM

Q: And the TGI [5]?
A: > 100 µM

Q: What about the TGI [6] of the same compound?
A: > 100 µM

Q: And the TGI [8]?
A: > 100 µM

Q: What about the TGI [9] of the same compound?
A: > 100 µM

Q: And the TGI [10]?
A: > 100 µM

Q: What does the source list for `NNc1nnc(-c2ccccc2)nc1Cc1ccccc1`?
A: TGI [1]: > 100 µM; TGI [3]: > 100 µM; TGI [4]: > 100 µM; TGI [7]: 6.43 µM; TGI [8]: > 100 µM; TGI [9]: 26.3 µM; TGI [10]: > 100 µM

Q: What does the source list for `COc1ccc(C(=O)/C=C/c2ccc(OCCCOc3ccc(/C=C/C(=O)c4ccc(OC)c(OC)c4)cc3)cc2)cc1OC`?
A: TGI [1]: > 100 µM; TGI [2]: > 100 µM; TGI [3]: > 100 µM; TGI [4]: > 100 µM; TGI [5]: > 100 µM; TGI [7]: > 100 µM; TGI [8]: > 100 µM; TGI [10]: > 100 µM

Q: `COc1ccc(C2C3=CONC3CC3CCCCC32)cc1` (stereo not given) was tested. Which TGI [1] did it give?
A: > 100 µM

Q: And the TGI [3]?
A: > 100 µM

Q: What about the TGI [5] of the same compound?
A: > 100 µM

Q: And the TGI [7]?
A: > 100 µM

Q: What about the TGI [8] of the same compound?
A: > 100 µM

Q: And the TGI [9]?
A: > 100 µM

Q: What about the TGI [10] of the same compound?
A: > 100 µM

Q: With `Cc1sc2nc3n(sc4nc5sc(C)c(C)c5c(=O)n43)c(=O)c2c1C` as the compound, how does the TGI [1] read?
A: > 100 µM

Q: What about the TGI [2] of the same compound?
A: > 100 µM

Q: What about the TGI [3] of the same compound?
A: > 100 µM

Q: What about the TGI [4] of the same compound?
A: > 100 µM

Q: And the TGI [5]?
A: > 100 µM

Q: What about the TGI [7] of the same compound?
A: > 100 µM

Q: What about the TGI [8] of the same compound?
A: > 100 µM

Q: What about the TGI [10] of the same compound?
A: > 100 µM
